System: K562 CRISPRi cells
Test: Perturb-seq pooled growth measurement (sgRNA counts, growth phenotype γ, relative activity)
Assay type: cell-based, human
Details: sequencing read counts; for Perturb-seq pooled growth sgRNA counts, d5: 5 days of growth (day seven after transduction); for Perturb-seq pooled growth sgRNA counts, d10: 10 days of growth (day twelve after transduction); for Perturb-seq pooled growth sgRNA counts, T0: T0 = day two after transduction
Summary of the method: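 CRISPRi K562 cells from the Perturb-seq transduced pool; 500,000-cell samples taken days two, seven and twelve post-transduction. sgRNA amplicons from genomic DNA sequenced; growth phenotypes from normalized sgRNA abundances at days seven and twelve versus day two. Relative activity assigned from day seven (five days' growth).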

Row | Substance | Perturb-seq pooled growth sgRNA counts, d5 | Perturb-seq pooled growth sgRNA counts, d10 | Perturb-seq pooled growth sgRNA counts, T0
1 | POLR1D_+_28196016.23-P1_03: sgRNA targeting POLR1D, GGTAAGCAAGGACCGACCGA, SEQ ID NO: 75 (listed as DNA, chemistry not fully specified) | 2365 | 933 | 10266
2 | POLR1D_+_28196016.23-P1_07: sgRNA targeting POLR1D, GGGAAGCAAGGAGCGACCGA, SEQ ID NO: 77 (listed as DNA, chemistry not fully specified) | 16283 | 16285 | 15589
3 | POLR1D_+_28196016.23-P1_08: sgRNA targeting POLR1D, GGGAAGCAGGGACCGACCGA, SEQ ID NO: 74 (listed as DNA, chemistry not fully specified) | 4205 | 1986 | 16414
4 | POLR2H_+_184081251.23-P1P2_00: sgRNA targeting POLR2H, GGGGCCACGAGAGCAGCAGA, SEQ ID NO: 28 (listed as DNA, chemistry not fully specified) | 947 | 1103 | 9498
5 | POLR2H_+_184081251.23-P1P2_07: sgRNA targeting POLR2H, GGGGCCACGAGTGCAGCAGA, SEQ ID NO: 118 (listed as DNA, chemistry not fully specified) | 6381 | 8153 | 4472
6 | POLR2H_+_184081251.23-P1P2_08: sgRNA targeting POLR2H, GGGGCCACGCGAGCAGCAGA, SEQ ID NO: 116 (listed as DNA, chemistry not fully specified) | 3492 | 3869 | 6134
7 | POLR2H_+_184081251.23-P1P2_11: sgRNA targeting POLR2H, GGGGCCACGAGAGCAGCGGA, SEQ ID NO: 115 (listed as DNA, chemistry not fully specified) | 898 | 1144 | 5900
8 | POLR2H_+_184081251.23-P1P2_12: sgRNA targeting POLR2H, GGGGCCACGAGAGCAGGAGA, SEQ ID NO: 117 (listed as DNA, chemistry not fully specified) | 4854 | 5996 | 5334
9 | RAN_+_131356438.23-P1P2_00: sgRNA targeting RAN, GGCGGTCGCTGCGCTTAGGG, SEQ ID NO: 69 (listed as DNA, chemistry not fully specified) | 7598 | 8936 | 5444
10 | RAN_+_131356438.23-P1P2_02: sgRNA targeting RAN, GGCGGCCGCTGCGCTTAGGG, SEQ ID NO: 70 (listed as DNA, chemistry not fully specified) | 15046 | 15358 | 11853
11 | RAN_+_131356438.23-P1P2_03: sgRNA targeting RAN, GGGGGTCGCTGCGCTTAGGG, SEQ ID NO: 71 (listed as DNA, chemistry not fully specified) | 6698 | 6816 | 5056
12 | RAN_+_131356438.23-P1P2_04: sgRNA targeting RAN, GGCGGTCGCGGCGCTTAGGG, SEQ ID NO: 72 (listed as DNA, chemistry not fully specified) | 11409 | 14870 | 6001
13 | RAN_+_131356438.23-P1P2_12: sgRNA targeting RAN, GGCGGTCGCTGCGCTTAGGT, SEQ ID NO: 73 (listed as DNA, chemistry not fully specified) | 16172 | 25349 | 7627
14 | RPL9_+_39460483.23-P1P2_00: sgRNA targeting RPL9, GGATGTTTCTGTGCTCGTGG, SEQ ID NO: 5 (listed as DNA, chemistry not fully specified) | 1141 | 1014 | 10355
15 | RPL9_+_39460483.23-P1P2_01: sgRNA targeting RPL9, GGATGATTCTGTGCTCGTGG, SEQ ID NO: 51 (listed as DNA, chemistry not fully specified) | 1108 | 1238 | 4886
16 | RPL9_+_39460483.23-P1P2_04: sgRNA targeting RPL9, GGATGTTTCAGTGCTCGTGG, SEQ ID NO: 53 (listed as DNA, chemistry not fully specified) | 3975 | 4118 | 5237
17 | RPL9_+_39460483.23-P1P2_05: sgRNA targeting RPL9, GGATGTTTCGGTGCTCGTGG, SEQ ID NO: 52 (listed as DNA, chemistry not fully specified) | 2217 | 2355 | 4950
18 | RPL9_+_39460483.23-P1P2_07: sgRNA targeting RPL9, GGATGTTTCTGCGCTCGTGG, SEQ ID NO: 54 (listed as DNA, chemistry not fully specified) | 7867 | 9339 | 7336
19 | RPS14_+_149829238.23-P1P2_00: sgRNA targeting RPS14, GAGGCCCGGGCGCGACAATC, SEQ ID NO: 45 (listed as DNA, chemistry not fully specified) | 3190 | 2984 | 11846
20 | RPS14_+_149829238.23-P1P2_01: sgRNA targeting RPS14, GAGACCCGGGCGCGACAATC, SEQ ID NO: 46 (listed as DNA, chemistry not fully specified) | 1474 | 1385 | 4954
21 | RPS14_+_149829238.23-P1P2_02: sgRNA targeting RPS14, GAGGCCCTGGCGCGACAATC, SEQ ID NO: 47 (listed as DNA, chemistry not fully specified) | 5497 | 5538 | 11519
22 | RPS14_+_149829238.23-P1P2_04: sgRNA targeting RPS14, GAGGCCCGCGCGCGACAATC, SEQ ID NO: 48 (listed as DNA, chemistry not fully specified) | 9641 | 12547 | 9244

Reference: patent US20220259593A1, “CONTROL OF MAMMALIAN GENE DOSAGE USING CRISPR” (The Regents of the University of California, priority 2019, published 2022)
